Source: article PMC10743026, “Virtual Screening Technology for Two Novel Peptides in Soybean as Inhibitors of α-Amylase and α-Glucosidase” (Foods, 2023)
Where two headings read alike, the source gives them in different places. Values belong to the substance of their own block, whether it stands above or below them. Ends that are not written are not given here.

What was measured:
α-amylase = conditions: cited from earlier work
Description: (§1) Peptides are obtained from the decomposition of proteins. Standard methods for preparing peptides in the food industry include enzymatic hydrolysis and microbial hydrolysis.

α-glucosidase = conditions: cited from earlier work
Description: as §1

[1] = biological target: T1, porcine pancreatic α-amylase (Sus scrofa, UniProt P00690); experiment: α-Amylase inhibition assay in vitro (starch/DNS); assay type: biochemical; conditions: synthetic peptides; enzyme 0.5 U/mL, starch 10 mg/mL, PBS pH 6.9–7.2; 20 min premix, 10 min at 37 °C; DNS, 540 nm; mean ± standard error of the mean, three parallels
T1 construct: purchased Sigma-Aldrich (St. Louis, MO, USA)
T1 sequence (P00690 16-511): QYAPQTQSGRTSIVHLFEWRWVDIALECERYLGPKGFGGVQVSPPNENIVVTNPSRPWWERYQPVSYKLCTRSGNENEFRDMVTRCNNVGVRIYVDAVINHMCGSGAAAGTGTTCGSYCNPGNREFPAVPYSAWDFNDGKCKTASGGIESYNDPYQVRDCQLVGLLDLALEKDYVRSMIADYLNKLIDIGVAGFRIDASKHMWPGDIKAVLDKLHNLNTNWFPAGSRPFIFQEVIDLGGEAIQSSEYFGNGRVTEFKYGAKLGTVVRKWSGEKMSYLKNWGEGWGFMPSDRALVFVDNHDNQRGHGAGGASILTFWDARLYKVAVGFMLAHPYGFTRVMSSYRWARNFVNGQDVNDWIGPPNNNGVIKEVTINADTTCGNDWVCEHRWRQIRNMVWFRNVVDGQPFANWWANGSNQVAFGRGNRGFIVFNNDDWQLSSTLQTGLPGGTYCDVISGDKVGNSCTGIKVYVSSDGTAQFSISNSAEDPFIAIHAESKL
Description: p-Nitrophenyl-α-D-glucopyranoside (pNPG) and soy protein isolate were obtained from Mackiln (Shanghai, China). DL-dithiothreitol (DTT), iodoacetamide (IAA), formic acid (FA), acetonitrile (ACN), methanol, and porcine pancreatic amylase (PPA) (>10 units/mg) were acquired from Sigma-Aldrich (St. Louis, MO, USA). α-Glucosidase (from Saccharomyces cerevisiae, 26.5 units/mg) and trypsin (from porcine pancreas, 250 units/mg) were obtained from Yuanye Biotech (Shanghai, China). DNS solution was purchased from Rhawn (Shanghai, China). Oligopeptides were prepared with LifeTein (Beijing, China). High-performance liquid chromatography (HPLC)-grade acetonitrile, methanol, and formic acid were obtained from Merck (Darmstadt, Germany). The other chemicals were of analytical grade.
Methods refer to Admassu’s and make appropriate modifications. The starch solution (10 mg/mL), enzyme solution (0.5 U/mL), and soybean peptide solution at different concentrations (5, 10, 15, 20, 25 mg/mL) were prepared, the solvent was PBS (pH 6.9–7.2). […] The absorbance was measured at 540 nm, and the α-amylase inhibition ratio was calculated according to Formula (1):(1) α−Amylase Inhibition Ratio=1−A1−A2/A3−A4×100% where A1, A2, A3, and A4 are the absorbance values of the sample, sample blank, negative control, and blank, respectively.

[2] = peptide from Camellia seed cake, ref [15]
[3] = peptide from egg albumin, ref [19]

Substance: GGSK [oligopeptide isolated from Porphyra spp]
inhibition mode on α-amylase (α-amylase; peptides from Porphyra spp., ref [11]): could still bind with the substrate after binding with α-amylase

Substance: LLLLPSYSEF [identified from Camellia seed cake]
IC50 (α-glucosidase; [2]): 1110 µM
inhibition type on α-glucosidase (α-glucosidase; [2]): mixed inhibition

IC50 [1]: 5580 ± 130 µM
Substance: SRNPIYSN

Substance: KLPGF [peptide segment identified in egg albumin]
IC50 (α-glucosidase; [3]): 59.5 µM
IC50 (α-amylase; [3]): 120 µM

IC50 [1]: 3080 ± 150 µM
Substance: LDQTPRVF

Substance: GPPGPA [identified from the skin collagen of the Chinese giant salamander]
inhibition type on α-glucosidase (α-glucosidase; peptide from skin collagen of Chinese giant salamander, ref [13]): competitive inhibitory effects
